Measurements: patent publication US20110217391A1, “MATRIX METALLOPROTEASE (MMP) PRODUCTION INHIBITOR” (FUJIFILM CORPORATION, priority 2010, published 2011)
Where two headings read alike, the source gives them in different places.

Key:
[1] = test system: Pellicle-derived human normal keratinocytes; conditions: 48 h
Method: Pellicle-derived human normal keratinocytes were inoculated into a 10% (v/v) FBS-containing MEM medium on a 12-well culture plate, at a cell density of 1.9×10^4 cells/well. Thereafter, the cells were pre-cultured for 24 hours according to an ordinary method. […] After completion of the culture, the cells were washed with PBS, and a survival test was then carried out according to a common method using MTT. Specifically, a 0.5 mg/mL MTT solution was added to the culture plate, resulting in a concentration of 500 μL/well, and it was then incubated in an incubator for 2 hours. Thereafter, 1.5 mL of dimethyl sulfoxide was added thereto, and the absorbance at a wavelength of 570 nm was then measured. The obtained absorbance was used as an indicator for the number of surviving cells. The number of surviving cells obtained in the case of not adding an evaluation sample was defined as 100, and the cell survival percentage (%) obtained in the case of adding an evaluation sample was obtained.

matrix metalloprotease 9 = experiment: Suppression of production of matrix metalloprotease 9 on epidermis, TGF β1 or β2 induction, ELISA of culture supernatant; format: cell-based, human; conditions: keratinocytes, TGF β1 or β2 5 ng/ml, 0.45 μg/ml, 48 hours
Method: Thereafter, the medium was exchanged with a test medium which had been prepared by adding TGF (transforming growth factor) β1 or β2 which is known to be released as a matrix metalloprotease 9 production promoting factor from cells upon UV irradiation, to a 1% (v/v) FBS-containing MEM medium to a final concentration of 5 ng/ml, so as to produce a matrix metalloprotease 9 induction test system. […] Specifically, the concentration of a grape extract was set at 100 μg/ml, and the concentration of a Salacia plant extract (the present invention) was set at 100 μg/ml. These test substances were each added to a test medium, and the medium was then exchanged with a fresh one. Thereafter, culture was carried out for 48 hours. After completion of the culture, a culture supernatant was recovered. The recovered supernatant was assayed according to the ELISA method with Matrix Metalloprotease-9, Human, Assay (GE Healthcare, RPN2614). Measurement was carried out in accordance with protocols provided by the distributer, and the value at a wavelength of 630 nm was measured using a wavelength-tunable microplate reader, Sunrise Rainbow Thermo (SUNRISE) and was then quantified. […]

Compound: C[C@H]1[C@H](C)CC[C@]2(C(=O)O)CC[C@]3(C)C(=CC[C@@H]4[C@@]5(C)CC[C@H](O)C(C)(C)[C@@H]5CC[C@]43C)[C@H]12 [ursolic acid]
- cell survival percentage ([1]; 0.45 μg/ml): ≥ 70%
- effect of suppressing the production of matrix metalloprotease 9 (MMP9 protein expression level) (matrix metalloprotease 9): did not have the effect of suppressing the production of matrix metalloprotease 9

Compound: CC1=C(/C=C/C(C)=C/C=C/C(C)=C/C(=O)O)C(C)(C)CCC1 [retinoic acid]
- cell survival percentage ([1]; 0.15 μg/ml): ≥ 70%
